Reference: patent US20050101595A1, “N-containing cycloalkyl-substituted amino-thiazole derivatives and pharmaceutical compositions for inhibiting cell proliferation and methods for their use” (PFIZER INC., priority 2003, published 2005)
Where a name gives a salt, the structure may show the parent alone. Read-outs that look alike come from different tables or passages of the source. One block for each molecule: values may come before it.

Key:
[1] = target: CDK2/Cyclin A (Homo sapiens, UniProt P24941); test: Inhibition of CDK2/Cyclin A Retinoblastoma Kinase Activity; assay type: biochemical; conditions: for Ki: apparent Ki, CDK2/proteolyzed cyclin A, Rb fragment substrate, 25 μM ATP
In short: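 Percent inhibition is calculated against DMSO-only wells after subtracting no-enzyme background. The enzyme is human CDK2 complexed with proteolyzed cyclin A, used at 10 nM or 19 nM on an Rb fragment with 25 μM [32/33P]ATP, at pH 7.4 and 30° C.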

[2] = target: human CDK4 and genetically truncated (1-264) cyclin D3 (Homo sapiens, UniProt P11802); test: Inhibition of CDK4/Cyclin D Retinoblastoma Kinase Activity; assay type: biochemical; conditions: for Ki: apparent Ki, CDK4/truncated cyclin D3, Rb fragment substrate, 25 μM ATP
Method: Cyclin-dependent kinase activity was measured by quantifying the enzyme-catalyzed, time-dependent incorporation of radioactive phosphate from [^32P]ATP or [^33P]ATP into a protein substrate. Unless noted otherwise, assays were performed in 96-well plates in a total volume of 50 μL, in the presence of 10 mM HEPES (N-[2-hydroxyethyl]piperazine-N′-[2-ethanesulfonic acid]) (pH 7.4), 10 mM MgCl2, 25 μM adenosine triphosphate (ATP), 1 mg/mL ovalbumin, 5 μg/mL leupeptin, 1 mM dithiothreitol, 10 mM β-glycerophosphate, 0.1 mM sodium vanadate, 1 mM sodium fluoride, 2.5 mM ethylene glycol-bis(β-aminoethyl ether)-N,N,N′N′-tetraacetic acid (EGTA), 2% (v/v) dimethylsulfoxide, and 0.03-0.4 μCi [^32/33P]ATP per reaction. Reactions were initiated with enzyme, incubated at 30° C., and terminated after 20 minutes by the addition of ethylenediaminetetraacetic acid (EDTA) to 250 mM. The phosphorylated substrate was then captured on a nitrocellulose or phosphocellulose membrane using a 96-well filtration manifold, and unincorporated radioactivity was removed by repeated washing with 0.85% phosphoric acid. Radioactivity was quantified by exposing the dried membranes to a phosphorimager.
Inhibition was measured relative to control wells that contained all reaction components including 2% (v/v) DMSO but no compound, after subtraction of background radioactivity measured in the absence of enzyme. Apparent Ki values of discrete compounds were measured by assaying enzyme activity in the presence of different inhibitor compound concentrations and subtracting the background radioactivity measured in the absence of enzyme. The kinetic parameters (kcat, Km for ATP) were measured for each enzyme under the usual assay conditions by determining the dependence of initial rates on ATP concentration. Inhibition data were fit to an equation for competitive inhibition using Kaleidagraph (Synergy Software), or were fit to an equation for competitive tight-binding inhibition using the software KineTic (BioKin, Ltd.).
Inhibition of CDK4/Cyclin D Retinoblastoma Kinase Activity:
A complex of human CDK4 and genetically truncated (1-264) cyclin D3 was purified using traditional biochemical chromatographic techniques from insect cells that had been co-infected with the corresponding baculovirus expression vectors (see e.g., Meijer and Kim, “Chemical Inhibitors of Cyclin-Dependent Kinases,” Methods in Enzymol,. vol. 283 (1997), pp. 113-128.). The enzyme complex (5 nM) was assayed with 0.3-0.5 μg of purified recombinant retinoblastoma protein fragment (Rb) as a substrate. The engineered Rb fragment (residues 386-928 of the native retinoblastoma protein; 62.3 kDa) contains the majority of the phosphorylation sites found in the native 106-kDa protein, as well as a tag of six histidine residues for ease of purification. Phosphorylated Rb substrate was captured by microfiltration on a nitrocellulose membrane and quantified using a phosphorimager as described above. For measurement of tight-binding inhibitors, the assay duration was extended to 60 minutes, during which the time-dependence of product formation was linear and initial rate conditions were met.

[3] = tested on: HCT-116 cell line; test: Inhibition of cell growth, tetrazolium salt (MTT) assay; assay type: cell-based; conditions: for IC50: Homo sapiens, HCT-116, 120 h, MTT, three to five days, read-out: HCT-116 IC50; for HCT-116 % Inhibition at 0.25 μM: 0.25 μM compound
In short: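 McCoy's 5A cultures; 4 h pre-incubation; compound dilutions in 0.5% v/v DMSO; 3–5 d, 37° C, 5% CO2; MTT 0.2 mg/mL final, 4 h; formazan dissolved in DMSO, A540; vs 0.5% DMSO vehicle.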

[4] = 0.1 μM compound, HCT-116, Table 3
[5] = 0.1 μM compound, HCT-116, Table 4
[6] = 0.03 μM compound, Table 2, 0.03 µM

Sequence of human CDK4 and genetically truncated (1-264) cyclin D3 (P11802 whole entry, the tested form may be a part): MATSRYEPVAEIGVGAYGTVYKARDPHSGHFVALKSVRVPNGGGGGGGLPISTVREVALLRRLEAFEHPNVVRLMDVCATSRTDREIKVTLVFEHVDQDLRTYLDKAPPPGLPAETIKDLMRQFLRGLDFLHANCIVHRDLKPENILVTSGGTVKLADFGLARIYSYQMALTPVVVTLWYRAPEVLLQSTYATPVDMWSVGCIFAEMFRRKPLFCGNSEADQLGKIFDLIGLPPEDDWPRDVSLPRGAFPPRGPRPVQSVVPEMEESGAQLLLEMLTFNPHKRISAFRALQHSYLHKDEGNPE
Sequence of human CDK4 and genetically truncated (1-264) cyclin D3 (P30281 1-264 partner): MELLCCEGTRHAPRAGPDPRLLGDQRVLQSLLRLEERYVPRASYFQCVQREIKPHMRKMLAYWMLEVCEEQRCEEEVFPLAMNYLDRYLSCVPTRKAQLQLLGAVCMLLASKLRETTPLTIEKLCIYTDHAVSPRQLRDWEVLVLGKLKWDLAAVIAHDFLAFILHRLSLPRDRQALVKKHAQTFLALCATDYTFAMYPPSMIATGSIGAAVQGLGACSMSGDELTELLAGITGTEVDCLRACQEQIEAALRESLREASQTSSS

Ki [1]: 0.0094 µM | Ki [2]: 0.0024 µM | IC50 ([3]; first HCT-116 column (c4)): 0.19 µM | IC50 ([3]; second HCT-116 column (c5)): 0.62 µM
SMILES: CN(CCS(=O)(=O)N1CCC(Nc2nc(N)c(C(=O)c3c(F)cccc3F)s2)CC1)C1CCCC1 [Example K30, (4-Amino-2-{1-[2-(cyclopentyl-methyl-amino)-ethanesulfonyl]-piperidin-4-ylamino}-thiazol-5-yl)-(2,6-difluoro-phenyl)-methanone Trifluoroacetic Acid Salt.]

Ki [1]: 0.045 µM | Ki [2]: 0.041 µM | IC50 ([3]; first HCT-116 column (c4)): 0.46 µM | IC50 ([3]; second HCT-116 column (c5)): 1.3 µM
SMILES: Nc1nc(NC2CCN(C(=O)c3sccc3Cl)CC2)sc1C(=O)c1c(F)cccc1F [Example C8, {4-Amino-2-[1-(3-chloro-thiophene-2-carbonyl)-piperidin-4-ylamino]-thiazol-5-yl}-(2,6-difluoro-phenyl)-methanone]

CDK2 % Inhibition at 0.03 μM ([1]; at 0.03 μM): 4% | CDK4 % Inhibition at 0.03 μM ([2]; at 0.03 μM): 21%
SMILES: CC(C)OC(=O)N1CCC(Nc2nc(N)c(C(=O)c3c(F)cccc3F)s2)CC1 [Example R84]
HCT-116 % Inhibition at 0.1 μM ([3]; HCT-116 cells, at 0.1 μM): 0% | HCT-116 5 Inhibition at 0.25 μM ([3]; HCT-116 cells, at 0.25 μM): 41

Ki [1]: 0.039 µM | Ki [2]: 0.022 µM | IC50 ([3]; first HCT-116 column (c4)): 0.75 µM | IC50 ([3]; second HCT-116 column (c5)): 2.1 µM
SMILES: Nc1nc(NC2CCN(C(=O)c3ccno3)CC2)sc1C(=O)c1c(F)cccc1F [Example C10, 1-{4-Amino-2-[1-(1-isoxazol-5-yl-methanoyl)-piperidin-4-ylamino]-thiazol-5-yl}1-(2,6-difluoro-phenyl)-methanone]

CDK2 % Inhibition at 0.03 μM ([1]; 0.03 μM compound, Table 3): 53% | CDK4 % Inhibition at 0.03 μM ([2]; 0.03 μM compound, Table 3): 61%
SMILES: CCc1ccc(S(=O)(=O)N2CCC(Nc3nc(N)c(C(=O)c4c(F)cccc4F)s3)CC2)cc1 [Example P30]
HCT-116 % Inhibition at 0.1 μM [3, 4]: 9% | HCT-116 % Inhibition at 0.25 μM ([3]; HCT-116, Table 3): 17%

CDK2 % Inhibition at 0.03 μM ([1]; 0.03 μM compound, Table 4): 7% | CDK4 % Inhibition at 0.03 μM ([2]; 0.03 μM compound, Table 4): 29%
SMILES: Nc1nc(NC2CCN(C(=O)c3ccc4c(c3)C(=O)OC4=O)CC2)sc1C(=O)c1c(F)cccc1F [Example Q66]
HCT-116 % Inhibition at 0.1 μM [3, 5]: 7% | HCT-116 % Inhibition at 0.25 μM ([3]; HCT-116, Table 4): 34%

CDK2 % Inhibition at 0.03 μM ([1]; 0.03 μM compound, Table 3): −5% | CDK4 % Inhibition at 0.03 μM ([2]; 0.03 μM compound, Table 3): 36%
SMILES: CS(=O)(=O)c1ccccc1S(=O)(=O)N1CCC(Nc2nc(N)c(C(=O)c3c(F)cccc3F)s2)CC1 [Example P81]
HCT-116 % Inhibition at 0.1 μM [3, 4]: 12% | HCT-116 % Inhibition at 0.25 μM ([3]; HCT-116, Table 3): 19%

CDK2 % Inhibition At 0.03 μM [1, 6]: 37% | CDK4 % Inhibition at 0.03 μM [2, 6]: 13%
SMILES: COc1ccc(NC(=O)N2CCC(Nc3nc(N)c(C(=O)c4c(F)cccc4F)s3)CC2)cc1 [Example O21]
HCT-116 % Inhibition at 0.25 μM ([3]; HCT-116, Table 2, 0.25 µM): 21%

Ki [1]: 0.0011 µM | Ki [2]: 0.00032 µM | IC50 ([3]; first HCT-116 column (c4)): 1.3 µM | IC50 ([3]; second HCT-116 column (c5)): 5 µM
SMILES: C[C@@H]1CN(CCc2ccc(S(=O)(=O)N3CCC(Nc4nc(N)c(C(=O)c5c(F)cccc5F)s4)CC3)cn2)C[C@H](C)N1 [Example N8]

CDK2 % Inhibition at 0.03 μM ([1]; 0.03 μM compound, Table 4): −13% | CDK4 % Inhibition at 0.03 μM ([2]; 0.03 μM compound, Table 4): 17%
SMILES: CCOC(=O)C(=O)N1CCC(Nc2nc(N)c(C(=O)c3c(F)cccc3F)s2)CC1 [Example Q39]
HCT-116 % Inhibition at 0.1 μM [3, 5]: 0% | HCT-116 % Inhibition at 0.25 μM ([3]; HCT-116, Table 4): 25%

Ki [1]: 0.0028 µM | Ki [2]: 0.003 µM | IC50 ([3]; first HCT-116 column (c4)): 0.46 µM | IC50 ([3]; second HCT-116 column (c5)): > 0.5 µM
SMILES: Nc1nc(NC2CCN(S(=O)(=O)CCCSc3ccncc3)CC2)sc1C(=O)c1c(F)cccc1F [Example K23, 1-(4-Amino-2-{1-[3-(pyridin-4-ylsulfanyl)-propane-1-sulfonyl]-piperidin-4-ylamino}-thiazol-5-yl)-1-(2,6-difluoro-phenyl)-methanone.]
